Entries after “also recorded” stand apart in the source; their conditions may differ. Blank lines part the entries; values can stand above or below the molecule they belong to.
How the values were obtained:
[1] = tested on: CV-1, MGC80-3, HEK293T and HCT116 cells; assay: apoptosis determined by DAPI staining; type: cell-based; details: for effect on sulindac sulfide-induced apoptosis: RXRα ligands given with sulindac sulfide
Method: To determine the involvement of RXRα in sulindac sulfide-induced apoptosis of cancer cells, its effect on apoptosis of CV-1 cells (available from American Type Cell Culture, Manassas, Va., as accession number CCL-70) in the absence or presence of RXRα transfection was evaluated. FIG. 13a. RXR was cloned into a pGFP.C2 vector (GenBank Accession #: U19281) according to the procedure of Li et al., Science 289, 1159-1164 (2000). CV-1 cells were transfected with or without RXRα prior to treatment with sulindac sulfide (75.micro.M) for 24 hr. […] Louis, Mo., as catalogue number D9542), and the presence of nuclear fragmentation and/or chromatin condensation is an indicator of apoptosis. […] The requirement of RXRαwas also examined using RXRα siRNA SEQ ID No.: 12 approach. MGC80-3 cells, HEK293T (ATCC, accession number CCL-1573) and HCT116 (ATCC, accession number CCL-247) cell lines were transfected with RXRα siRNA or control siRNA using oligofectamine (from Invitrogen, Corp). Cell samples from each cell line were lysed and the cell extracts were prepared by immunoblotting to determine RXRα expression. Cells transfected with RXR.alpha siRNA or control siRNA were treated with sulindac sulfide (75.micro.M) for 24 hr, and apoptosis was determined by DAPI staining.

[2] = target: T1, RXRα ligand-binding domain (Homo sapiens, UniProt P19793); assay: competition binding assay with [3H]9-cis-RA and RXRα ligand-binding domain
T1 construct: made in house; host or cells: E. coli BL21 (pET vector, Novagen)
T1 sequence (P19793 224-462): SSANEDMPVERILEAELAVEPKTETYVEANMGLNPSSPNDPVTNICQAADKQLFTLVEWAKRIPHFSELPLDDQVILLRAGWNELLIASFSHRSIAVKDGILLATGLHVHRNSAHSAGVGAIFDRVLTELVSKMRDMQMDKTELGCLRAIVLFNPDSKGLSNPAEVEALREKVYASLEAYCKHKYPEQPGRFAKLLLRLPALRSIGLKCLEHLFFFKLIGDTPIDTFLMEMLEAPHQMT
Method: FIG. 8 is a dose response analysis illustrating that 15d-PGJ2 binds RXRα with high affinity conducted with 15d-PGJ2 in the competition binding assay. […] After separation of bound from free radioactivity by elution through Sephadex G-25 desalting columns. Bound radioactivity eluted was quantitated by liquid scientillation counting.
Therefore, Inventor investigated the possibility that 15d-PGJ2 bound directly to RXRα […] A dose response analysis (FIG. 8) was conducted with 15d-PGJ2 in the competition binding assay.
LBD expressed in E. coli. […] The reactions were then eluted through a Sephadex G-25 column to separate the bound label from free label and the RXRα LBD-bound label was quantitated by liquid scintillation counting.

TR3/RXRα heterodimer = target: T2, TR3/RXRα heterodimer (Homo sapiens, UniProt P19793); assay: gel shift assay (EMSA) of TR3/RXRα heterodimer binding to βRARE; type: biochemical
T2 construct: made in house; host or cells: in vitro translation
T2 sequence (P22736 whole entry partner, one chain of several): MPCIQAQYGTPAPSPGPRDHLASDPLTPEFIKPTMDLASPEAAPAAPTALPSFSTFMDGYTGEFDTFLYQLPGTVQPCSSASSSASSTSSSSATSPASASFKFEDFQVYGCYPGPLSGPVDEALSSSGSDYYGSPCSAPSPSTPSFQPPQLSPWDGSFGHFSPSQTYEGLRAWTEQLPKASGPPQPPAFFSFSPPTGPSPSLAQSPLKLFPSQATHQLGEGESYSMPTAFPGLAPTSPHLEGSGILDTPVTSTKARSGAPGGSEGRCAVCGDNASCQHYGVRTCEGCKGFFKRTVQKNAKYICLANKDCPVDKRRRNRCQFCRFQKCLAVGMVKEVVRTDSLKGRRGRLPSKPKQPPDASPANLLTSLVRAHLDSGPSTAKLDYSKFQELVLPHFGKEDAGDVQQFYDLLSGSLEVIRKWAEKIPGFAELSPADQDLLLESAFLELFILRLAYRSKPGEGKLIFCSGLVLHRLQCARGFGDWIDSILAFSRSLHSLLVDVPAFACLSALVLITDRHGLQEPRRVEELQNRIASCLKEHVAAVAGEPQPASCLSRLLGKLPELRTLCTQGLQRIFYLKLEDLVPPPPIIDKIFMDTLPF
Method: In vitro translated RXRα and TR3 were incubated with 15d-PGJ2 (10^-5 M) for 15 min in the absence or presence of anti-TR3 or anti-RXRα antibody. Following a further incubation with ^32P-radiolabelled βRARE, the reactions were analyzed by EMSA.
To study whether 15d-PGJ2 acted on the TR3/RXRα heterodimer to inhibit the heterodimer activity, Inventor investigated whether 15d-PGJ2 affected binding of the TR3/RXRα heterodimer to the beta.RARE by gel shift assay.
RXRα and TR3 proteins are incubated in the absence or presence of a test compound. Following incubation, the mixture is incubated with ^23P-labeled βretinoic acid response element (βRARE), and the binding of the RXRα/TR3 heterodimer is analyzed by the gel-shift assay. […] The enhancement of the heterodimer binding by a compound will indicate that the compound retains the RXRα/TR3 heterodimer in the nucleus and likely induces transcriptional activity of the heterodimer through its induction of RXRα/TR3 heterodimerization at their LBD dimerization interfaces.

RARβ expression = assay: RARβ protein expression by Western analysis in cancer cells; type: cell-based
Method: The indicated cancer cells were treated for 24 h with or without trans-RA (10^-6 M), or 15d-PGJ2 (5.micro.M) or their combination. RARβ protein expression was determined by Western analysis.
The effect of sulindac sulfide on RXR transactivation was investigated for its effect of RARβ induction by all-trans-retinoic acid (tRA), which activates the RA response element (βRARE) in the RARβ promoter through an RAR/RXR heterodimer. […] The βRARE could be also activated by an RXR/PPAR heterodimer. […] Cells were treated for 24 hr with or without with trans-RA (10^-6 M), or SR11237 (10^-6 M), ciglitazone (10.micro.M), sulindac sulfide (100.micro.M) or the indicated combinations. RARβ protein expression was determined by Western analysis.

RXRα = target: T3, RXRα (Homo sapiens, UniProt P19793); assay: subcellular localization of RXRα by immunostaining / confocal microscopy; type: cell-based; details: for nuclear export of GFP fusion with amino acids 348-398 of RXRα: HEK293T cells; for GFP-RXRα association with mitochondria (overlay with Mito-RFP) / GFP-RXRα localization: COS-7 cells, 10^-4 M, 4 hours
T3 sequence (P19793 1-462): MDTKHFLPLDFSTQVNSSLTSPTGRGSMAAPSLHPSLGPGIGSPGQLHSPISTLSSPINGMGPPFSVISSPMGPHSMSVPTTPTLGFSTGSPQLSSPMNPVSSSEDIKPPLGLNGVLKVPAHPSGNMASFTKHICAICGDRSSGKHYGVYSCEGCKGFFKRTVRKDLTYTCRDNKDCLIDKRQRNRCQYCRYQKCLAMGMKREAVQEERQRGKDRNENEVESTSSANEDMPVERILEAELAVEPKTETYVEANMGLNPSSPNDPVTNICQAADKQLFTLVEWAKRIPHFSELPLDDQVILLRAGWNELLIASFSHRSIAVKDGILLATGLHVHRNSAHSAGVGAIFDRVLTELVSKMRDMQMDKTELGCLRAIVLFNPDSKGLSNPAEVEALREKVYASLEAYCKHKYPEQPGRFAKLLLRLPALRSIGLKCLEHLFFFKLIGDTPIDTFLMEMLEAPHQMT
Method: Expression vector for Flag-RXRα was transfected into the indicated cell line. Cells were then treated with 15d-PGJ2 (5.micro.M) for 3 hr, then immunostained with anti-Flag antibody to detect RXRα Flag-RXRα was visualized by confocal microscopy.
(§1) Expression vectors for Flag-RXRα and GFP-TR3 were transfected into PC12 cells alone or together. Cells were then treated with 15d-PGJ2 (5.micro.M) for 3 hr, then immunostained with anti-Flag antibody to detect RXRα Flag-RXRα and GFP-TR3 were visualized by confocal microscopy, and their images merged.
Cos7 cells were transfected with GFP-RXRα and Mito-REP, and treated with or without 10^-4 M indomethacin or diclofenac for 4 hours. The distribution of GFP-RXRα and Mito-REP was visualized by confocal microscopy.
For example, cells such as LNCaP prostate cancer cells are induced to apoptosis using agents such as the phorbol ester, TPA (12-0-tetradecanolphorbol 13-acetate, Cell Signaling Technology Cat. No.: 9905).
For example, heat shock protein 60 (Hsp60) is a mitochondrial specific protein. […] The treated cells are then incubated with a conjugated secondary antibody and visualized using confocal microscopy. In this example, Cy-3 or FITC conjugated secondary antibodies were used for visualizing the sub-cellular localization of RXRα or Hsp60, respectively.
A GFP-RXRα expression vector was transfected into COS-7 cells and GFP-RXRα was expressed.
A fusion protein created by combining GFP and amino acids 348-398 of RXRα, is transfected into HEK293T cells.
To determine the role of 15d-PGJ2 binding on the new RXR pathway, a confocal microscopy analysis was performed to determine subcellular localization of RXRα in the presence or absence of 15d-PGJ2.
(§2) Because RXR heterodimerizes with TR3, Inventor examined the effect of 15d-PGJ2 on TR3 subcellular localization in PC12 phaeochromocytoma cells.
To determine the mechanism of RXRα mediated apoptosis in the presence of sulindac sulfide, Inventors examined the effect of sulindac sulfide on subcellular localization of RXRα

TR3 = assay: subcellular localization of TR3 and RXRα/TR3 heterodimer by confocal microscopy; type: cell-based
Method: as §1, with “FIG. 10 is a series of confocal microscope images of immunostained PC12 cells illustrating that binding of 15d-PGJ2 to RXRα induces translocation of RXRα homodimer/monomer or TR3/RXRα heterodimer from the nucleus to the cytoplasm. Expression” for “Expression”
In the absence of TPA, both TR3 and RXRα reside mainly in the nucleus. […] (FIG. 2).
as §2
Either TR3 alone, RXRα alone or TR3 and RXRα was transfected into HEK293T cells. Cells were then treated with sulindac sulfide (75.micro.M) for 6 hr. RXR.alpha and TR3 localization was determined by immunostaining, and cells were also stained by DAPI. […] Thus, the effect of sulindac sulfide on the cytoplasmic localization of TR3 depends on RXRα expression, probably due to their heterodimerization. Thus, sulindac sulfide induces nuclear export of RXRα and RXRα/TR3 heterodimer. (FIG. 14b).
The effect of sulindac sulfide on mitochondrial targeting of RXRα and TR3 was determined by treating H460 lung cancer cells with 75 micro.M sulindac sulfide for 6 hours and visualization of the cellular localization of these proteins by immunostaining. A two stage detection system was used having either anti-RXR or anti TR3 as a first stage (Santa Cruz Biotechnology and Abgent, respectively). In the absence of treatment, both RXRα and TR3 were found mainly in the nucleus.

RXRα/IKK interaction = target: T4, RXRα/IKK interaction (Homo sapiens, UniProt P19793); assay: co-immunoprecipitation assay of RXRα with IKK; type: cell-based; details: HEK293T cells, HA-IKKγ and Flag-RXRα; BI419 10^-6 M, 15d-PGJ2 5 μM, sulindac sulfide 75 μM, 6 hr
T4 construct: expressed in transfected cells; host or cells: HEK293T, pcDNA3 expression vectors
T4 sequence (Q9Y6K9 whole entry partner, one chain of several): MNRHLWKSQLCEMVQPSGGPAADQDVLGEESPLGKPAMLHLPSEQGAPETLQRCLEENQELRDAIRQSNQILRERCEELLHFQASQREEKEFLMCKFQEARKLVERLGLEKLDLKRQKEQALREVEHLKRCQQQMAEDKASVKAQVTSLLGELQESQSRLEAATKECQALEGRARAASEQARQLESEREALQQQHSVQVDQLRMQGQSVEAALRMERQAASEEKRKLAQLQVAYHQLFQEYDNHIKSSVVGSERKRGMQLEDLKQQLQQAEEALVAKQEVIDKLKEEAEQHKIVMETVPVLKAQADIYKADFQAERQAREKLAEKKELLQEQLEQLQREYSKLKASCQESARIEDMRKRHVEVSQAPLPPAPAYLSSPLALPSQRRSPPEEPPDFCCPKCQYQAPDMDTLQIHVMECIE
T4 sequence (O14920 whole entry partner, one chain of several): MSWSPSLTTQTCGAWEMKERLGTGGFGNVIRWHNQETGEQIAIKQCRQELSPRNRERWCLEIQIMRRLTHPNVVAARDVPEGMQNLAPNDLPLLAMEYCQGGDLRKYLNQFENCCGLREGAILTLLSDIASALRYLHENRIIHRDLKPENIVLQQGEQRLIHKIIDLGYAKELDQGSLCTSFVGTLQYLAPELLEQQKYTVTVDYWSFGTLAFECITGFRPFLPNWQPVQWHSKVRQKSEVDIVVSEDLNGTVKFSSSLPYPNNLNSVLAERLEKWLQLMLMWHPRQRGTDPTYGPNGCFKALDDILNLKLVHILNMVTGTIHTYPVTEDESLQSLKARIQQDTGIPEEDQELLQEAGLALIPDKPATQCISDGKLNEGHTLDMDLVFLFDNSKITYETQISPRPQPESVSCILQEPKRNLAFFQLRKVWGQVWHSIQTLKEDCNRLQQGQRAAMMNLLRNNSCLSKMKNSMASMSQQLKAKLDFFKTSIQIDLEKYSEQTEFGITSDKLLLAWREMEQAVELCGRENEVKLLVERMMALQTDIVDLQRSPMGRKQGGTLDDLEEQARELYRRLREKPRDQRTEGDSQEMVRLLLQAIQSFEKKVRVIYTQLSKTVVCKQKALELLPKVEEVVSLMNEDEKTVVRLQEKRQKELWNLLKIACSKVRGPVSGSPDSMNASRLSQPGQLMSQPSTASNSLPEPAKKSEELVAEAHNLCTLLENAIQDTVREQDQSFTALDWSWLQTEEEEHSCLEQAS
Source text: IKK is composed of three subunits: IKKα and IKKβ, the catalytic subunits, and IKKγ, a regulatory subunit. IKK activation is required for NF-kB activation through its phosphorylation and degradation of IkB in response to proinflammatory stimuli. In addition, IKK also regulates cellular processes in a NF-kB-independent manner. We examined whether sulindac sulfide-induced cytoplasmic RXRα could interact with IKK. The indicated expression vector (pcDNA3 from Invitrogen, Corp) was transfected into HEK293T cells alone or together. After transfection, cells were treated with sulindac sulfide (75.micro.M) for 6 hr, and the interaction of RXRα and IKKβ was analyzed by co-immunoprecipitation assay. […] (FIG. 17a). The interaction was also illustrated by their cytoplasmic co-localization in cells treated with sulindac sulfide. (FIG. 17b). […] In this example, H460 cells were treated with or without sulindac sulfide (75.micro.M) for 6 hr, and cells were stained for RXRα and IKKβ (FIG. 17c). […] HA-IKKγ and Flag-RXRα expression vectors were transfected into HEK293T cells alone or together. After transfection, cells were treated with a new retinoid (BI419 (10^-6 M), 15d-PGJ2 (5.micro.M), or sulindac sulfide (75.micro.M) for 6 hr. The interaction of RXRα and IKKγ was studied by co-immunoprecipitation assay.

Compound: CC1=C(/C=C/C(C)=C\C=C\C(C)=C\C(=O)O)C(C)(C)CCC1 [9-cis-RA]
effect on sulindac sulfide-induced apoptosis [1]: inhibitory effect

Compound: CCCCC/C=C/C=C1/C(=O)C=C[C@@H]1C/C=C\CCCC(=O)O [15d-PGJ2, 15-Deoxy-.delta^12,14-prostaglandin J2]
Ki ([2]; read-out: Ki, displacement of [3H]9-cis-RA binding to the RXR ligand-binding domain, 10 nM [3H]9-cis-RA, bacterially purified RXRα LBD): 1800 nM | binding of TR3/RXRα heterodimer to βRARE (TR3/RXRα heterodimer; 10^-5 M, 15 min, in vitro translated RXRα and TR3, EMSA): completely abolished | binding of RXRα/TR3 heterodimer to DNA (βRARE), as control in gel-shift screening (TR3/RXRα heterodimer; stated for positive/negative control, no concentration): abolishes the heterodimer binding | induction of RARβ expression by trans-RA (RARβ expression; Calu-6 lung and ZR75-1 breast cancer cells, 15d-PGJ2 5 μM, trans-RA 10^-6 M, 24 h): potently inhibited | RARβ expression in combination with RXR ligands (RARβ expression; used together with RXR ligands): failed to induce | transfected Flag-RXRα localization (RXRα; H460 lung cancer or SY5Y neuroblastoma cells, 5 μM, 3 hr): significant amount of RXRα was found in the cytoplasm | Flag-RXRα localization (RXRα; PC12 cells, 5 μM, 3 hr): migrated from the nucleus to the cytoplasm | RXRα nuclear export (RXRα; no conditions given): induce RXRα nuclear export | GFP-TR3 localization, cotransfected with Flag-RXRα (TR3; PC12 cells, 5 μM, 3 hr): found in the cytoplasm | GFP-TR3 migration to the cytoplasm, TR3 transfected alone (TR3; PC12 cells, 5 μM, 3 hr): did not | interaction of RXRα with IKKγ (RXRα/IKK interaction): further promoted

Compound: CC1(C)CCC(C)(C)c2cc(C3(c4ccc(C(=O)O)cc4)OCCO3)ccc21 [SR11237]
effect on sulindac sulfide-induced apoptosis [1]: inhibitory effect

Compound: CCCCCCCCCCCCCC(=O)O[C@@H]1[C@@H](C)[C@@]2(O)[C@@H](C=C(CO)C[C@]3(O)C(=O)C(C)=C[C@@H]23)[C@H]2C(C)(C)[C@]12OC(C)=O [TPA, 12-0-tetradecanolphorbol 13-acetate]
nuclear export of GFP fusion with amino acids 348-398 of RXRα (RXRα): causes the fusion protein to export from the nucleus | RXRα association with mitochondria (overlay with Hsp60) (RXRα; LNCaP cells treated with TPA): associates with mitochondria | RXRα localization (RXRα; LNCaP prostate cancer cells, endogenous RXRα, TPA treatment): found in the cytoplasm | TR3 and RXRα localization (TR3; LNCaP cells treated with TPA): co-localize to the cytoplasm

Compound: CCC(=C/[C@H](C)C/C=C/C(C)=C/[C@@H](C)C(=O)[C@@H](C)[C@H](O)[C@@H](C)C/C(C)=C/C(=O)O)/C=C/[C@@H]1OC(=O)C=C[C@@H]1C [leptomycin-B]
nuclear export of GFP fusion with amino acids 348-398 of RXRα (RXRα): inhibited

Continued, in another order:

GFP-RXRα association with mitochondria (overlay with Mito-RFP) (RXRα): associated with mitochondria
Compound: O=C(O)Cc1ccccc1Nc1c(Cl)cccc1Cl [diclofenac]
GFP-RXRα localization (RXRα): capable of inducing the migration; also recorded: found in the cytoplasm

GFP-RXRα association with mitochondria (overlay with Mito-RFP) (RXRα): associated with mitochondria
Compound: COc1ccc2c(c1)c(CC(=O)O)c(C)n2C(=O)c1ccc(Cl)cc1 [indomethacin]
GFP-RXRα localization (RXRα): capable of inducing the migration; also recorded: found in the cytoplasm

IC50 [2]: ~100 µM
Compound: CC1=C(CC(=O)O)c2cc(F)ccc2/C1=C\c1ccc([S+](C)[O-])cc1 (stereo not drawn) [sulindac]
apoptosis, cells without RXRα transfection ([1]; CV-1 cells, 75 μM, 24 hr, DAPI staining): little inducing effect

From patent US8105798B2, “Cytoplasmic activity of retinoid X receptor and its regulation by ligands and dimerization” (The Burnham Institute, priority 2003, dated 2012)
